Reference: patent US9096615B2, “Bridged bicyclic amino thiazine dioxide compounds as inhibitors of beta-secretase and methods of use thereof” (AMGEN INC., priority 2013, dated 2015)

Columns and labels:
[1] = test system: Aβ40 in conditioned medium of cells stably expressing Amyloid Precursor Protein (APP); experiment: In vitro BACE cell-based assay (HEK cell assay, Aβ40 sandwich ELISA); conditions: Homo sapiens, HEK293; average IC50; read-out: BACE1 cell assay IC50
How it was run: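 APP-stable cells were cultured 24 h at 37 °C, then given compound as 10-point dose-response (top 100 μM or 10 μM; 0.1% DMSO final) for 24 h. Aβ40 in conditioned medium was measured by sandwich ELISA (pAb40 capture, biotinylated 6E10 detection, Eu time-resolved fluorescence). IC50 from percent inhibition versus concentration.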

[2] = target: BACE1 (Homo sapiens, UniProt P56817); experiment: In vitro enzymatic BACE FRET assay; type: biochemical; conditions: average IC50; read-out: BACE1 Enzyme assay IC50
How it was run: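 BACE (0.2 nM) pre-incubated 1 h with serially diluted inhibitor in 0.05 M acetate pH 4.2, 10% DMSO, 100 uM genapol; 50 nM FRET peptide substrate added, 1 h incubation. Stopped with Tris to neutral pH; fluorescence read (ex 488, […]).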

[3] = target: T1, Cathepsin D (Cat D) (Homo sapiens, UniProt P07339); experiment: In vitro enzymatic Cathepsin D (Cat D) FRET assay; type: biochemical; conditions: average IC50; first procedure; read-out: CatD IC50
T1 construct: made in house; host or cells: CHO cells
How it was run: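 Recombinant human Cat D expressed in CHO cells, 9 nM, pre-incubated 1 h with inhibitor in 0.05 M citrate pH 3.5, 10% DMSO, 5 mM CHAPS. Reaction started with 20 nM FRET peptide substrate, run 1 h, stopped with Tris to neutral pH; fluorescence read at ex 500/em 580 nm.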

T1 sequence (P07339 65-412, species assumed): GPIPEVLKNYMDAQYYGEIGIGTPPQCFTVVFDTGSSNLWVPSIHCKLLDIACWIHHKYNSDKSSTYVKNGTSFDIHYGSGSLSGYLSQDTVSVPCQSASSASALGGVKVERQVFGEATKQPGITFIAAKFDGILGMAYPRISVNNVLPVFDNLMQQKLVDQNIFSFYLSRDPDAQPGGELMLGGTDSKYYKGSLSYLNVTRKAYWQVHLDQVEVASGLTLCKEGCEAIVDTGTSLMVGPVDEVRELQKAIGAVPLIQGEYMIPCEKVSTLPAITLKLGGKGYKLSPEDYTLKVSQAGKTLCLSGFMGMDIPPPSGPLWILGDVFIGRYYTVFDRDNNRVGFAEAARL
Sequence of BACE1 (P56817 46-501, species assumed): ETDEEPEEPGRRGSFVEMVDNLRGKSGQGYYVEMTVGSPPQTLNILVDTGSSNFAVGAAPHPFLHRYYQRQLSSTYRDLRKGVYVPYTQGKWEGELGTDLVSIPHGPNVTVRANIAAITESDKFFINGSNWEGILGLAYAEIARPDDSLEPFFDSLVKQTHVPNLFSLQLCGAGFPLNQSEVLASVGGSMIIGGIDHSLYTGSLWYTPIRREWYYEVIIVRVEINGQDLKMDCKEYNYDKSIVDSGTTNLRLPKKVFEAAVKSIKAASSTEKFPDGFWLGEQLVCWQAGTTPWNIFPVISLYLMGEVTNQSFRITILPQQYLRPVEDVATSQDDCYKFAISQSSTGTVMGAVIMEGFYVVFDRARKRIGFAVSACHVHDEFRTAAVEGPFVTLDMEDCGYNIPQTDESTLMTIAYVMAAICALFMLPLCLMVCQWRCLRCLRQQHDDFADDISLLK

SMILES	IC50 [1] [µM]	IC50 [2] [µM]	IC50 [3] [µM]
CCc1ccc(C(=O)Nc2ccc(F)c([C@@]3(C)N=C(N)[C@@]4(CF)CC[C@@H]3S4(=O)=O)c2)nc1 [Example 101, N-(3-((1S,2R,5R)-4-amino-5-(fluoromethyl)-2-methyl-8,8-dioxido-8-thia-3-azabicyclo[3.2.1]oct-3-en-2-yl)-4-fluorophenyl)-5-ethyl-2-pyridinecarboxamide]	0.012	0.026	1850
C[C@]1(c2cc(NC(=O)c3ncc(C(F)(F)F)cc3Cl)ccc2F)N=C(N)[C@@]2(CF)CC[C@@H]1S2(=O)=O [Example 108, N-(3-((1S,2R,5R)-4-amino-5-(fluoromethyl)-2-methyl-8,8-dioxido-8-thia-3-azabicyclo[3.2.1]oct-3-en-2-yl)-4-fluorophenyl)-3-chloro-5-(trifluoromethyl)-2-pyridinecarboxamide]	0.007	0.008	> 400
C[C@]1(c2cc(NC(=O)c3ccc(C#N)cn3)ccc2F)N=C(N)[C@@]2(CF)CC[C@@H]1S2(=O)=O [Example 111, N-(3-((1S,2R,5R)-4-amino-5-(fluoromethyl)-2-methyl-8,8-dioxido-8-thia-3-azabicyclo[3.2.1]oct-3-en-2-yl)-4-fluorophenyl)-5-cyano-2-pyridinecarboxamide]	0.004	0.002	957
C[C@]1(c2cc(NC(=O)c3ccc(C(F)(F)F)cc3F)ccc2F)N=C(N)[C@@]2(C)CC[C@@H]1S2(=O)=O [Example 121, N-(3-((1S,2R,5R)-4-amino-2,5-dimethyl-8,8-dioxido-8-thia-3-azabicyclo[3.2.1]oct-3-en-2-yl)-4-fluorophenyl)-2-fluoro-4-(trifluoromethyl)benzamide]	0.15	0.41	> 400
C[C@]12CC[C@H]([C@@](C)(c3cc(NC(=O)c4ccc(C(F)(F)F)cc4F)ccc3F)N=C1N)S2(=O)=O [Example 122, N-(3-((1R,2R,5S)-4-amino-2,5-dimethyl-8,8-dioxido-8-thia-3-azabicyclo[3.2.1]oct-3-en-2-yl)-4-fluorophenyl)-2-fluoro-4-(trifluoromethyl)benzamide]	0.255	0.905	> 400
COc1ccc(C(=O)Nc2ccc(F)c([C@@]3(C)N=C(N)[C@@]4(C)CC[C@@H]3S4(=O)=O)c2)c(F)c1 [Example 123, N-(3-((1S,2R,5R)-4-amino-2,5-dimethyl-8,8-dioxido-8-thia-3-azabicyclo[3.2.1]oct-3-en-2-yl)-4-fluorophenyl)-2-fluoro-4-methoxybenzamide]	0.083	0.13	1620
COc1ccc(C(=O)Nc2ccc(F)c([C@@]3(C)N=C(N)[C@]4(C)CC[C@H]3S4(=O)=O)c2)c(F)c1 [Example 124, N-(3-((1R,2R,5S)-4-amino-2,5-dimethyl-8,8-dioxido-8-thia-3-azabicyclo[3.2.1]oct-3-en-2-yl)-4-fluorophenyl)-2-fluoro-4-methoxybenzamide]	0.103	0.588	4440
C[C@]1(c2cc(NC(=O)c3c(F)cc(Br)cc3F)ccc2F)N=C(N)[C@@]2(C)CC[C@@H]1S2(=O)=O [Example 125, N-(3-((1S,2R,5R)-4-amino-2,5-dimethyl-8,8-dioxido-8-thia-3-azabicyclo[3.2.1]oct-3-en-2-yl)-4-fluorophenyl)-4-bromo-2,6-difluorobenzamide]	0.065	0.103	> 400
C[C@]12CC[C@H]([C@@](C)(c3cc(NC(=O)c4c(F)cc(Br)cc4F)ccc3F)N=C1N)S2(=O)=O [Example 126, N-(3-((1R,2R,5S)-4-amino-2,5-dimethyl-8,8-dioxido-8-thia-3-azabicyclo[3.2.1]oct-3-en-2-yl)-4-fluorophenyl)-4-bromo-2,6-difluorobenzamide]	0.073	0.315	2200
C[C@]1(c2cc(NC(=O)c3ccc(C#N)cc3F)ccc2F)N=C(N)[C@@]2(C)CC[C@@H]1S2(=O)=O [Example 127, N-(3-((1S,2R,5R)-4-amino-2,5-dimethyl-8,8-dioxido-8-thia-3-azabicyclo[3.2.1]oct-3-en-2-yl)-4-fluorophenyl)-4-cyano-2-fluorobenzamide]	0.025	0.056	> 400
C[C@]12CC[C@H]([C@@](C)(c3cc(NC(=O)c4ccc(C#N)cc4F)ccc3F)N=C1N)S2(=O)=O [Example 128, N-(3-((1R,2R,5S)-4-amino-2,5-dimethyl-8,8-dioxido-8-thia-3-azabicyclo[3.2.1]oct-3-en-2-yl)-4-fluorophenyl)-4-cyano-2-fluorobenzamide]	0.037	0.123	> 400
C[C@]1(c2cc(Nc3ncnc4cc(Cl)cnc34)ccc2F)N=C(N)[C@@]2(C)CC[C@@H]1S2(=O)=O [Example 130, N-(3-((1S,2R,5R)-4-amino-2,5-dimethyl-8,8-dioxido-8-thia-3-azabicyclo[3.2.1]oct-3-en-2-yl)-4-fluorophenyl)-7-chloropyrido[3,2-d]pyrimidin-4-amine]	0.004	0.005	363
C[C@]12CC[C@H]([C@@](C)(c3cc(Nc4ncnc5cc(Cl)cnc45)ccc3F)N=C1N)S2(=O)=O [Example 131, N-(3-((1R,2R,5S)-4-amino-2,5-dimethyl-8,8-dioxido-8-thia-3-azabicyclo[3.2.1]oct-3-en-2-yl)-4-fluorophenyl)-7-chloropyrido[3,2-d]pyrimidin-4-amine]	0.018	0.029	482
COc1cnc2c(Nc3ccc(F)c([C@@]4(C)N=C(N)[C@]5(C)CC[C@H]4S5(=O)=O)c3)ncnc2c1 [Example 133, N-(3-((1R,2R,5S)-4-amino-2,5-dimethyl-8,8-dioxido-8-thia-3-azabicyclo[3.2.1]oct-3-en-2-yl)-4-fluorophenyl)-7-methoxypyrido[3,2-d]pyrimidin-4-amine]	0.026	0.096	1160
CC#CCOc1cnc2c(Nc3ccc(F)c([C@@]4(C)N=C(N)[C@@]5(C)CC[C@@H]4S5(=O)=O)c3)ncc(F)c2c1 [Example 134, N-(3-((1S,2R,5R)-4-amino-2,5-dimethyl-8,8-dioxido-8-thia-3-azabicyclo[3.2.1]oct-3-en-2-yl)-4-fluorophenyl)-3-(2-butyn-1-yloxy)-5-fluoro-1,7-naphthyridin-8-amine]	0.004	0.001	1610
CC#CCOc1cnc2c(Nc3ccc(F)c([C@@]4(C)N=C(N)[C@]5(C)CC[C@H]4S5(=O)=O)c3)ncc(F)c2c1 [Example 135, N-(3-((1R,2R,5S)-4-amino-2,5-dimethyl-8,8-dioxido-8-thia-3-azabicyclo[3.2.1]oct-3-en-2-yl)-4-fluorophenyl)-3-(2-butyn-1-yloxy)-5-fluoro-1,7-naphthyridin-8-amine]	0.021	0.003	614
C[C@]12CC[C@H]([C@@](C)(c3cc(Nc4ncc(F)c5cc(OCC6CC6)cnc45)ccc3F)N=C1N)S2(=O)=O [Example 136, N-(3-((1R,2R,5S)-4-amino-2,5-dimethyl-8,8-dioxido-8-thia-3-azabicyclo[3.2.1]oct-3-en-2-yl)-4-fluorophenyl)-3-(cyclopropylmethoxy)-5-fluoro-1,7-naphthyridin-8-amine]	0.253	0.061	5340
